# From US20260062412A1, “NITROGEN-CONTAINING HETEROCYCLIC COMPOUND HAVING MYT1 INHIBITORY ACTIVITY” (CHUGAI SEIYAKU KABUSHIKI KAISHA, priority 2023, published 2026)
# pIC50: −log10 of the molar value. Counter-ions that a name gives are not always drawn.
# Target: MYT1 protein (Homo sapiens (Human), UniProt Q99640)
# Assay: Test for binding to ATP binding site of MYT1 (Kinase Tracer 178 / Eu-Anti-GST antibody TR-FRET)
# Conditions: ATP binding site of MYT1, 30 minutes at room temperature
# MYT1 protein, sequence (Q99640 whole entry): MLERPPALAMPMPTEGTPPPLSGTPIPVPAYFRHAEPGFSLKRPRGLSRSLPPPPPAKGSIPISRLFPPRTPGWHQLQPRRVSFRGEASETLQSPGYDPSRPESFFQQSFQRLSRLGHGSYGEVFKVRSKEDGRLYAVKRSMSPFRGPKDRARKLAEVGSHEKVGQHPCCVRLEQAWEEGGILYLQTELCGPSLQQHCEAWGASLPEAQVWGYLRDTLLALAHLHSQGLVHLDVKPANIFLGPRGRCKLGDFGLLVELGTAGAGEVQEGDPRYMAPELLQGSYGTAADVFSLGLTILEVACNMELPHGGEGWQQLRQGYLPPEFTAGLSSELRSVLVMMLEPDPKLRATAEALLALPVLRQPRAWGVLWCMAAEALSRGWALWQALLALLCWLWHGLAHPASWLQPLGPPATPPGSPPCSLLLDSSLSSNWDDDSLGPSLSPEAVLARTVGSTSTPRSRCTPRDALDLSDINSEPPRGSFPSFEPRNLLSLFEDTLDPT
row,pIC50,Compound
1,8.34,"CCC(C)c1cc2c(-c3ccc(F)c4[nH]ncc34)c(N)c(=O)[nH]c2c2cccnc12 (centres unmarked) [Compound C109, 3-Amino-6-butan-2-yl-4-(7-fluoro-1H-indazol-4-yl)-1H-1,7-phenanthrolin-2-one]"
2,7.85,"CP(C)(=O)c1cc2c(-c3ccc(F)c4[nH]ncc34)c(N)c(=O)[nH]c2c2cccnc12 [Compound C110, 3-Amino-6-dimethylphosphoryl-4-(7-fluoro-1H-indazol-4-yl)-1H-1,7-phenanthrolin-2-one]"
3,8.31,"Nc1c(-c2ccc(F)c3[nH]ncc23)c2cc(I)c3ncccc3c2[nH]c1=O [Compound C111, 3-Amino-4-(7-fluoro-1H-indazol-4-yl)-6-iodo-1H-1,7-phenanthrolin-2-one]"
4,7.11,"Nc1c(-c2ccc(F)c3[nH]ncc23)c2cc(N3CCCC3=O)c3ncccc3c2[nH]c1=O [Compound C112, 3-Amino-4-(7-fluoro-1H-indazol-4-yl)-6-(2-oxopyrrolidin-1-yl)-1H-1,7-phenanthrolin-2-one]"
5,8.34,"Nc1c(-c2ccc(F)c3[nH]ncc23)c2cc(N3CCCC3)c3ncccc3c2[nH]c1=O [Compound C113, 3-Amino-4-(7-fluoro-1H-indazol-4-yl)-6-pyrrolidin-1-yl-1H-1,7-phenanthrolin-2-one]"
6,8.70,"CN1CCN(c2cc3c(-c4ccc(F)c5[nH]ncc45)c(N)c(=O)[nH]c3c3cccnc23)CC1 [Compound C114, 3-Amino-4-(7-fluoro-1H-indazol-4-yl)-6-(4-methylpiperazin-1-yl)-1H-1,7-phenanthrolin-2-one]"
7,8.43,"Nc1c(-c2ccc(F)c3[nH]ncc23)c2cc(N3CCC(F)(F)C3)c3ncccc3c2[nH]c1=O [Compound C115, 3-Amino-6-(3,3-difluoropyrrolidin-1-yl)-4-(7-fluoro-1H-indazol-4-yl)-1H-1,7-phenanthrolin-2-one]"
8,8.57,"Nc1c(-c2ccc(F)c3[nH]ncc23)c2cc(N3CCC(O)C3)c3ncccc3c2[nH]c1=O (centres unmarked) [Compound C116, 3-Amino-4-(7-fluoro-1H-indazol-4-yl)-6-(3-hydroxypyrrolidin-1-yl)-1H-1,7-phenanthrolin-2-one]"
9,8.46,"Nc1c(-c2ccc(F)c3[nH]ncc23)c2cc(N3CCC(N4CCOCC4)CC3)c3ncccc3c2[nH]c1=O [Compound C117, 3-Amino-4-(7-fluoro-1H-indazol-4-yl)-6-(4-morpholin-4-ylpiperidin-1-yl)-1H-1,7-one]"
10,8.64,"Nc1c(-c2ccc(F)c3[nH]ncc23)c2cc(N3CC4(COC4)C3)c3ncccc3c2[nH]c1=O [Compound C118, 3-Amino-4-(7-fluoro-1H-indazol-4-yl)-6-(2-oxa-6-azaspiro[3,3]heptan-6-yl)-1H-1,7-one]"
11,8.66,"Nc1c(-c2ccc(F)c3[nH]ncc23)c2cc(N3CCC(N4CCCC4)CC3)c3ncccc3c2[nH]c1=O [Compound C119, 3-Amino-4-(7-fluoro-1H-indazol-4-yl)-6-(4-pyrrolidin-1-ylpiperidin-1-yl)-1H-1,7-phenanthrolin-2-one]"
12,8.54,"Nc1c(-c2ccc(F)c3[nH]ncc23)c2cc(N3CCC4(COC4)C3)c3ncccc3c2[nH]c1=O [Compound C120, 3-Amino-4-(7-fluoro-1H-indazol-4-yl)-6-(2-oxa-7-azaspiro[3.4]octan-7-yl)-1H-1,7-one]"
13,8.52,"Nc1c(-c2ccc(F)c3[nH]ncc23)c2cc(N3CCC3)c3ncccc3c2[nH]c1=O [Compound C121, 3-Amino-6-(azetidin-1-yl)-4-(7-fluoro-1H-indazol-4-yl)-1H-1,7-phenanthrolin-2-one]"
14,8.35,"Nc1c(-c2ccc(F)c3[nH]ncc23)c2cc(N3CCOCC3)c3ncccc3c2[nH]c1=O [Compound C122, 3-Amino-4-(7-fluoro-1H-indazol-4-yl)-6-morpholin-4-yl-1H-1,7-phenanthrolin-2-one 2,2,2-trifluoroacetate]"
15,8.47,"Nc1c(-c2ccc(F)c3[nH]ncc23)c2cc(N3CC(F)(F)C3)c3ncccc3c2[nH]c1=O [Compound C123, 3-Amino-6-(3,3-difluoroazetidin-1-yl)-4-(7-fluoro-1H-indazol-4-yl)-1H-1,7-phenanthrolin-2-one]"
16,8.47,"Nc1c(-c2ccc(F)c3[nH]ncc23)c2cc(N3CCS(=O)(=O)CC3)c3ncccc3c2[nH]c1=O [Compound C124, 3-Amino-6-(1,1-dioxo-1,4-thiazinan-4-yl)-4-(7-fluoro-1H-indazol-4-yl)-1H-1,7-phenanthrolin-2-one]"
17,8.23,"Nc1c(-c2ccc(F)c3[nH]ncc23)c2cc(N3CCCCC3)c3ncccc3c2[nH]c1=O [Compound C125, 3-Amino-4-(7-fluoro-1H-indazol-4-yl)-6-piperidin-1-yl-1H-1,7-phenanthrolin-2-one]"
18,8.33,"Nc1c(-c2ccc(F)c3[nH]ncc23)c2cc(N3CCC(F)(F)CC3)c3ncccc3c2[nH]c1=O [Compound C126, 3-Amino-6-(4,4-difluoropiperidin-1-yl)-4-(7-fluoro-1H-indazol-4-yl)-1H-1,7-phenanthrolin-2-one]"
19,8.82,"CS(=O)(=O)Nc1cc2c(-c3ccc(F)c4[nH]ncc34)c(N)c(=O)[nH]c2c2cccnc12 [Compound C127, N-[3-Amino-4-(7-fluoro-1H-indazol-4-yl)-2-oxo-1H-1,7-phenanthrolin-6-yl]methanesulfonamide]"
20,8.43,"Nc1c(-c2ccc(F)c3[nH]ncc23)c2cc(NS(=O)(=O)C3CC3)c3ncccc3c2[nH]c1=O [Compound C130, N-[3-amino-4-(7-fluoro-1H-indazol-4-yl)-2-oxo-1H-1,7-phenanthrolin-6-yl]cyclopropanesulfonamide]"
21,7.48,"Nc1c(-c2ccc(F)c3[nH]ncc23)c2cc(N3CCC(C(F)(F)F)CC3)c3ncccc3c2[nH]c1=O [Compound C131, 3-Amino-4-(7-fluoro-1H-indazol-4-yl)-6-[4-(trifluoromethyl)piperidin-1-yl]-1H-1,7-phenanthrolin-2-one]"
22,7.96,"Nc1c(-c2ccc(F)c3[nH]ncc23)c2cc(C3CNC3)c3ncccc3c2[nH]c1=O [Compound C132, 3-Amino-6-(azetidin-3-yl)-4-(7-fluoro-1H-indazol-4-yl)-1H-1,7-phenanthrolin-2-one; formate]"
23,8.77,"Nc1c(-c2ccc(F)c3[nH]ncc23)c2cc(C3CCNCC3)c3ncccc3c2[nH]c1=O [Compound C133, 3-Amino-4-(7-fluoro-1H-indazol-4-yl)-6-piperidin-4-yl-1H-1,7-phenanthrolin-2-one; hydrochloride]"
24,7.74,"CC1(c2cc3c(-c4ccc(F)c5[nH]ncc45)c(N)c(=O)[nH]c3c3cccnc23)CC1 [Compound C142, 3-Amino-4-(7-fluoro-1H-indazol-4-yl)-6-(1-methylcyclopropyl)-1H-1,7-phenanthrolin-2-one]"

row,Compound,pIC50
1,"Nc1c(-c2ccc(F)c3[nH]ncc23)c2cc(N3CC4CC(C3)O4)c3ncccc3c2[nH]c1=O [Compound C128, 3-Amino-4-(7-fluoro-1H-indazol-4-yl)-6-(6-oxa-3-azabicyclo[3.1.1]heptan-3-yl)-1H-1,7-phenanthrolin-2-one]",8.24
2,"Nc1c(-c2ccc(F)c3[nH]ncc23)c2cc(N3C4COCC3C4)c3ncccc3c2[nH]c1=O [Compound C129, 3-Amino-4-(7-fluoro-1H-indazol-4-yl)-6-(3-oxa-6-azabicyclo[3.1.1]heptan-6-yl)-1H-1,7-one]",8.48
